The data set is described as follows: Dissolution of active ingredient in ternary mixture stearate 1500/TPGS/water. The format is physicochemical.

Description: For this purpose, 10 g of ternary mixture are prepared from 4.50 g of stearate 1500, 500 mg of TPGS and 5 g of water at 50° C. This mixture is maintained at 50° C. with stirring for 5 minutes.
In an Erlenmeyer provided with magnetic stirring, 1.80 g of stearate 1500 and 200 mg of TPGS are mixed at 50° C. with stirring for 3 minutes in order to form a homogenous and intimate mixture of both polymers. The mixture is then slowly cooled to 40° C.
1 ml of an aqueous solution of rBetv1 is then prepared at a concentration of 3 mg/ml.
1 ml of this solution is then introduced into the previous mixture of molten polymer maintained at 40° C.

Take `CNCC(O)c1ccc(O)c(O)c1.O=C(O)C(O)C(O)C(=O)O` (centres unmarked) [adrenaline bitartrate]: under “stearate 1500/TPGS/water 4.50 g/500 mg/5 g at 50° C., 4.54 g powder added”, the “dissolution in ternary mixture” value was “total and rapid”.

B1: rBetv1: recombinant allergen rBetv1, a characteristic allergen of trees of the order of fagales and in particular birch (protein, UniProt P15494 2-160, looked up)
Major pollen allergen Bet v …: GVFNYETETTSVIPAARLFKAFILDGDNLFPKVAPQAISSVENIEGNGGPGTIKKISFPEGFPFKYVKDRVDEVDHTNFKYNYSVIEGGPIGDTLEKISNEIKIVATPDGGSILKISNKYHTKGDHEVKAEQVKASKEMGETLLRAVESYLLAHSDAYN
For the molecule B1, the “dissolution in molten polymer mixture” value (1 ml of 3 mg/ml aqueous solution into 1.80 g stearate 1500 + 200 mg TPGS at 40° C.) was “complete and rapid”.

Values taken from patent US20160361251A1, “NOVEL PROCESS FOR PRODUCING TRANSMUCOSAL PHARMACEUTICAL FORMULATIONS AND FORMULATIONS THUS OBTAINED” (Clemann Group, priority 2013, published 2016).
